Results reported in patent US20250250265A1, “BENZOTHIAZOLE-PHENYLSULFONYL-PIPERIDINE ANALOGS AS ACTIVATORS OF NACYLPHOSPHATIDYLETHANOLAMINE HYDROLYZING PHOSPHOLIPASE D” (priority 2022, published 2025).
“And” between values parts separate entries of the source, which are not always exact repeats. Equal values may be shown once. Read-outs that look alike come from different tables or passages of the source. Marks after values point to notes of the source that are not given here.

What was measured:
[1] = tested on: RAW264.7 mouse macrophages; test: Cytotoxicity (MTT) in RAW264.7 macrophages; type: cell-based
Experimental: (§1) Cytotoxicity was measured using MTT as previously described except that the studies used 96-well plates with 100 μL of 0.3 mg/mL MTT solution was added after 24 h of treatment and then replaced after 3 h with 0.1 M HCl in isopropanol. See Aggarwal et al., J. Biol. Chem. 295(21): 7289-7300 (2020). Viability was expressed as percent absorbance at 560 nm relative to vehicle controls.

[2] = target: T1, recombinant mouse NAPE-PLD (Mus musculus, UniProt Q8BH82); test: In vitro fluorescence NAPE-PLD activity assay (HTS/CRC) with recombinant mouse NAPE-PLD and PED-A1; type: biochemical; settings: for Emax (95% Cl): Table 4, maximal efficacy as fold increase in NAPE-PLD activity versus vehicle only; for AC50 (nM) / Max % bA (%) / AC50: Table 1; for AC50 (nM) / AC50: concentration for 50% maximum activation from basal activity (no activator); for Max % bA (%): maximum induced activity compared to basal (100%) activity
T1 construct: hexahistidine (His6) (C); made in house; host or cells: E. coli
T1 sequence (Q8BH82 1-396): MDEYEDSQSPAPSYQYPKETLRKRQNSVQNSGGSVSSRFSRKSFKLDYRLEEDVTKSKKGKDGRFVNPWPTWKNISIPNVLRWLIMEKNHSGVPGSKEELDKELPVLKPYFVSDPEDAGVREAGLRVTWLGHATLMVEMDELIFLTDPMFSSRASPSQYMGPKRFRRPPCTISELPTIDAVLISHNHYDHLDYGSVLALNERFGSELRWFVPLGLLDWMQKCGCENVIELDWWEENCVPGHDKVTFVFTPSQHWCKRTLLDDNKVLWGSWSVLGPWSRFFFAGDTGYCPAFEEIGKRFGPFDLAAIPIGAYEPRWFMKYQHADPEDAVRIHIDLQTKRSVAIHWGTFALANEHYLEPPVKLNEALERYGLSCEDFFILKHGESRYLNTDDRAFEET
Experimental: Using the fluorogenic NAPE substrate, PED-A1, and recombinant mouse NAPE-PLD (rNAPE-PLD), an in vitro high-throughput (HTS) assay was conducted to screen ˜40,000 compounds for their ability to modulate NAPE-PLD activity. The HTS assay enabled the detection of both NAPE-PLD activators and inhibitors. […] Initial structure-activity response studies with the top hits identified benzothiazole phenylsulfonyl-piperidine carboxamide analogs (BT-PSP analogs) as lead compounds for NAPE-PLD activators (Table 1). The lead BT-PSP analog identified, VU534, induces 50% of its activation effect on NAPE-PLD at 270 nM (AC50 270 nM), and induces a maximal effect of 195% of basal NAPE-PLD activity (Table 1).
In vitro fluorescence NAPE-PLD activity assays using recombinant NAPE-PLD and either PED-A1 or flame-NAPE as fluorogenic substrate were performed as previously described except with small modifications as noted below. See Aggarwal et al., J. Biol. Chem. 295(21): 7289-7300 (2020); Zarrow et al., J. Lipid Res. 63(1): 100156 (2022).
For the HTS assays, test compounds were incubated with recombinant enzyme for 1 h prior to adding PED-A1 (final 0.4 μM) mixed with N-palmitoyl-dioleoyl-PE (final 3.6 μM) to adjust for the high sensitivity of the Panoptic instrument (WaveFront Biosciences). Assays used black-wall, clear-bottom, non-sterile, and non-treated 384-well plates (Greiner Bio-One 781906). The assay was read in kinetic fluorescence mode on the Panoptic instrument for 4 min and the slope of the signal from 30-100 s was used for analysis. A total of 39,328 compounds from the Vanderbilt Discovery Collection were tested, each at 10 μM. The tested compounds were chosen to represent a structurally diverse selection from the full library. Each 384-well plate included 320 test compound wells and 64 control wells. Unlike previous pilot screening assays, bithionol (10 μM final) was used in place of lithocholic acid (100 μM final) as the inhibitor control. Before performing high-throughput screening, a checkerboard assay was performed to validate the assay parameters. This yielded a Z′ score of 0.676. Z′ scores were also calculated for each plate during screening, and plates with scores <0.5 were re-run. The average Z′ across all screening plates was 0.52, and the total hit rate was 3.6%. B-scores were calculated from the initial slopes across each plate using WaveGuide software (WaveFront Biosiences). Modulator hits were defined as compounds with absolute B-scores of 3 or higher. The number of compounds in various B-score ranges were as follows: […], 12 compounds; −10 to −5, 221 compounds; −5 to −3, 770 compounds; −3 to 3, 37924 compounds; 3 to 4, 314 compounds; 4 to 6, 70 compounds; 6 to 10, 15 compounds. Activator hits with B-scores of >3 were selected for the replication assay and a selection of analogs of the activators.
Concentration response curve (CRC) experiments used the same assay conditions as the HTS assay, except that graded concentrations of each test compound were used, with total amount of vehicle (DMSO) kept constant. CRC experiments with purified recombinant mouse NAPE-PLD were performed on two separate days, with values from each day normalized to vehicle only controls on same plate, and then all normalized values from both days averaged together. CRC experiments with human NAPE-PLD represent value from only a single day, due to limited amounts of this recombinant enzyme.

[3] = target: T2, Fatty Acid Amide Hydrolase (FAAH) (Homo sapiens, UniProt O00519); test: FAAH activity assay (Cayman Chemicals); type: biochemical
T2 construct: purchased Cayman Chemicals
T2 sequence (O00519 1-579): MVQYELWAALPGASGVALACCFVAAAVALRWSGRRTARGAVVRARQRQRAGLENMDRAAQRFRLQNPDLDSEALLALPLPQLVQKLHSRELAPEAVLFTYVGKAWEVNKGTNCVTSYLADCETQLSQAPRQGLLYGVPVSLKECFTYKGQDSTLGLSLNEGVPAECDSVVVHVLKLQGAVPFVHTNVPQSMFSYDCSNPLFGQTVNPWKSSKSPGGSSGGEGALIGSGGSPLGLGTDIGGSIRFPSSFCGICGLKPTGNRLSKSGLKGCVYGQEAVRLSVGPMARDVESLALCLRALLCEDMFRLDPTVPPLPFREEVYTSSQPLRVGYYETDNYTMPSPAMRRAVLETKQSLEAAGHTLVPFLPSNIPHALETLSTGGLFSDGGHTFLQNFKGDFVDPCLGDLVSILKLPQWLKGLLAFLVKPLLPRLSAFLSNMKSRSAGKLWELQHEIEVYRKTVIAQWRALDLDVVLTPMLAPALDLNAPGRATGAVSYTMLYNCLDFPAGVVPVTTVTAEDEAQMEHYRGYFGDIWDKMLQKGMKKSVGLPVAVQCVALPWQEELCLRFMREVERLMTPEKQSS
Experimental: (§2) Concentration response curves were plotted for VU534 for the enzymes fatty acid amide hydrolase (FAAH) and soluble epoxide hydrolase (sEH).
(§3) The fluorescence interference assay was performed using the same method as the HTS assay, but with BODIPY-FL C5 (Thermo Fisher Scientific) used in place of PED-A1. sEH and FAAH activity assays were performed according to the manufacturer's specifications (Cayman Chemicals).

[4] = target: T3, soluble epoxide hydrolase (sEH) (Homo sapiens, UniProt P34913); test: sEH activity assay (Cayman Chemicals); type: biochemical; settings: 33 μM compound, compared to vehicle (0%)
T3 construct: purchased Cayman Chemicals
T3 sequence (P34913 1-555): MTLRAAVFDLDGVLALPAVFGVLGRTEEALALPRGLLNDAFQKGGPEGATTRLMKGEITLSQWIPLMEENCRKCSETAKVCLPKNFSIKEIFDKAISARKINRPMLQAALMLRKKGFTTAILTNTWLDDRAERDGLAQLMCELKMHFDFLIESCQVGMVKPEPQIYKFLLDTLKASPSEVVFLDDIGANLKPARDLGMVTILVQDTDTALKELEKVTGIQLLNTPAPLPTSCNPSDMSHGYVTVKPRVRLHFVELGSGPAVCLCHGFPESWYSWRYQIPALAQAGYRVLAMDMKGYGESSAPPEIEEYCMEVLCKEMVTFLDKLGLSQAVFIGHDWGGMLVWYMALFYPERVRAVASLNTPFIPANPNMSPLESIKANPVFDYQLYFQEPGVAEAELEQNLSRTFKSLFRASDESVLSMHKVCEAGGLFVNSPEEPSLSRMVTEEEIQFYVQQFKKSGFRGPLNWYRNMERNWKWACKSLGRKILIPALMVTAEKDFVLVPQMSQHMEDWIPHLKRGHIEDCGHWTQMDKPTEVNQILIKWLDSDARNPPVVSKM
Experimental: as §2, §3

[5] = tested on: HepG2 human hepatocytoma cells; test: Cytotoxicity (MTT) in HepG2 cells; type: cell-based; settings: Table 3; 33 μM
Experimental: as §1

[6] = target: T4, NAPE-PLD activity of HepG2 cells (Homo sapiens, UniProt Q6IQ20); test: Cell-based NAPE-PLD activity in HepG2 cells (flame-NAPE); settings: Table 3; 10 μM
T4 construct: endogenous in cells; host or cells: HepG2
Experimental: In vitro models of the hepatic steatosis of non-alcoholic fatty liver disease (NAFLD) are well-established, with the primary method being incubation of primary human hepatocytes or hepatocyte cell lines such as HepG2, HuH7, HepaRG, with oleic acid and palmitic acid for 24 to 48 h, then measuring the resulting steatosis, lipid peroxidation, apoptosis, and inflammatory gene expression. Using flame-NAPE to measure NAPE-PLD activity in the human hepatoma HepG2 cell line, the experimental data confirmed that VU534 activated NAPE-PLD in human cells (AC50 940 nM; max % bA 155%). Bithionol (10 μM) reduced HepG2 flame-NAPE hydrolysis by >67%.
NAPE-PLD activity was measured in cells as previously described, except that FluoroBrite DMEM (Gibco A1896701) was used as media. See Zarrow et al., J. Lipid Res. 63(1): 100156 (2022). For RAW264.7 assays, PED-A1 (3.6 μM final) was used as the substrate with 10 μM orlistat added to inhibit PLA1 activity, while for HepG2 cells, flame-NAPE was used (with no orlistat added).

[7] = Table 2, maximal induced activity for recombinant NAPE-PLD compared to basal (100%), read-out: Emax (%)
[8] = Table 2, rNAPE-PLD activity assay, read-out: EC50
[9] = Table 3, read-out: In vitro EC50
[10] = Table 3, read-out: In vitro Emax (100% activity is baseline activity of vehicle only)
[11] = Table 2, rNAPE-PLD activity assay

T4 sequence (Q6IQ20 whole entry): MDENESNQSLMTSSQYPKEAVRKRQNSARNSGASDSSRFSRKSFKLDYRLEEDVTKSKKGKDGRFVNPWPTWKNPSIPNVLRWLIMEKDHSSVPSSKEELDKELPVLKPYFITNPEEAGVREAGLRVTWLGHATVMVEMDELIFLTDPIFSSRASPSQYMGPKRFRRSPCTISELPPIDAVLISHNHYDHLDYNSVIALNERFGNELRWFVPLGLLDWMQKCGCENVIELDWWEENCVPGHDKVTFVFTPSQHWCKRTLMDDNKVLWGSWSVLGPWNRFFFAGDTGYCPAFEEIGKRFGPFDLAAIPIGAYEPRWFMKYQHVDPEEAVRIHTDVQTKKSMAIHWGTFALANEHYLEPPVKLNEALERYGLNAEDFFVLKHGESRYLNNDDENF

| Emax [2, 7] [%] | Emax (95% Cl) [2] | EC50 [2, 9] [µM] | Emax [2, 10] [%] | Max % bA (%) [2] [%] | SMILES | also measured |
| --- | --- | --- | --- | --- | --- | --- |
| 150 | – | – | – | – | Cc1cc(F)ccc1S(=O)(=O)N1CCC(C(=O)Nc2nc3c(C)cccc3s2)CC1 [MRJ-058A] | 33 μM Mϕ % Viability ([1]; Table 2, Mϕ, 33 μM compound): 55%; EC50 [2, 8]: 2.9 µM; inhibition at 33 µM ([3]; 33 μM compound, compared to vehicle (0%)): 20%; inhibition at 33 µM [4]: 85% |
| – | <1.2 fold | – | – | – | Cc1cc(F)ccc1S(=O)(=O)N1CCC(C(=O)Nc2nc3ccccc3s2)CC1 [VU205] | – |
| – | 1.6 (1.5-1.6) fold | ~2.9 | ~151 | – | Cc1cc(F)ccc1S(=O)(=O)N1CCC(C(=O)Nc2nc3c(C)cccc3s2)CC1 [VU212] | % viability RAW 264.7 (33 μM) ([1]; Table 3, 33 μM): 32% and 56%; Remaining FAAH Activity (33 μM) ([3]; Table 3, 33 μM): 61% and 79%; % HepG2 viability (33 μM) [5]: 66% and 69%; In-cell NAPE-PLD activity in HepG2 (10 μM) with PED-A1 or flame-NAPE as substrate [6]: 197% and 268% |
| – | 2.1 (2.0-2.2) fold | 2.6 | 162 | – | COc1ccc2nc(NC(=O)C3CCN(S(=O)(=O)c4ccc(F)cc4)CC3)sc2c1 [VU484] | – |
| – | 2.0 (1.8-4.0) fold | 29 | 232 | – | COc1cccc2sc(NC(=O)C3CCN(S(=O)(=O)c4ccc(F)cc4)CC3)nc12 [VU485] | – |
| 135 | 1.7 (1.6-1.8) fold | 0.39 | 136 | – | O=C(Nc1nc2ccccc2s1)C1CCN(S(=O)(=O)c2ccc(F)cc2)CC1 [VU488] | EC50 [2, 8]: 0.39 µM |
| 170 | 1.7 (1.6-1.8) fold | 2.4 | 167 | 170 | Cc1ccc2nc(NC(=O)C3CCN(S(=O)(=O)c4ccc(Cl)cc4)CC3)sc2c1 [VU539] | AC50 [2]: 2.38 µM; EC50 [2, 8]: 2.38 µM |
| – | – | 3.3 | 153 | – | O=C(Nc1nc2ccccc2s1)C1CCN(S(=O)(=O)c2ccc(Cl)cc2)CC1 [VU541] | – |
| < 120 | 1.9 (1.9-2.0) fold | 1.1 | 183 | <120 | Cc1cccc2sc(NC(=O)C3CCN(S(=O)(=O)c4ccc(Cl)cc4)CC3)nc12 [VU542] | AC50 (nM) [2]: Not active; EC50 (μM) [2, 11]: Inactive |
| – | – | – | ~349 | – | Cc1ccc(S(=O)(=O)N2CCC(C(=O)Nc3nc4ccc(Cl)cc4s3)CC2)cc1 [VU572] | – |
| – | 1.8 (1.8-1.9) fold | ~1 | 171 | – | COc1ccc(S(=O)(=O)N2CCC(C(=O)Nc3nc4ccc(C)cc4s3)CC2)cc1 [VU601] | – |
| < 120 | 2.1 (2.0-2.2) fold | ~0.2 | ~119 | 170 | COc1ccc(S(=O)(=O)N2CCC(C(=O)Nc3nc4c(C)cccc4s3)CC2)cc1 [VU605] | AC50 [2]: 1.04 µM; EC50 (μM) [2, 11]: Inactive |

| SMILES | Emax [2, 7] [%] | Emax (95% Cl) [2] | EC50 [2, 9] [µM] | Emax [2, 10] [%] | Max % bA (%) [2] [%] | also measured |
| --- | --- | --- | --- | --- | --- | --- |
| Cc1cccc2sc(NC(=O)C3CCN(S(=O)(=O)c4ccc(F)cc4)CC3)nc12 [VU231] | < 120 | 2.0^d fold | 1.1 | 168 | <120 | AC50 (nM) [2]: Not active; EC50 (μM) [2, 11]: Inactive |
